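Each compound was tested at five concentrations against cells in 96-well plates for 48 hours. The concentration for 50% growth inhibition is given as GI50.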 Calls of active or inactive are those of the source. Cut-off read from the data, not from the text of the source: active = GI50 up to about 1.1 µM and inactive = higher.
Columns and labels:
Assay in all cases: growth of human tumour cells (NCI), 48 h
ACHN = system: ACHN
BT-549 = system: BT-549
CCRF-CEM = system: CCRF-CEM
COLO 205 = system: COLO 205
EKVX = system: EKVX
HCT-116 = system: HCT-116
HL-60 = system: HL-60
HOP-62 = system: HOP-62
MDA-MB-231 = system: MDA-MB-231
Malme-3M = system: Malme-3M
NCI/ADR-RES = system: NCI/ADR-RES
OVCAR-3 = system: OVCAR-3
OVCAR-4 = system: OVCAR-4
RXF 393 = system: RXF 393
SF-268 = system: SF-268
SF-295 = system: SF-295
SF-539 = system: SF-539
SN12C = system: SN12C
SNB-19 = system: SNB-19
U-251 = system: U-251

Row | SMILES | GI50 (ACHN) | GI50 (BT-549) | GI50 (CCRF-CEM) | GI50 (COLO 205) | GI50 (EKVX) | GI50 (HCT-116) | GI50 (HL-60) | GI50 (HOP-62) | GI50 (MDA-MB-231) | GI50 (Malme-3M) | GI50 (NCI/ADR-RES) | GI50 (OVCAR-3) | GI50 (OVCAR-4) | GI50 (RXF 393) | GI50 (SF-268) | GI50 (SF-295) | GI50 (SF-539) | GI50 (SN12C) | GI50 (SNB-19) | GI50 (U-251)
1 | Cc1ccc(Nc2n[nH]c(=S)s2)cc1C | > 100 µM (inactive) | > 100 µM (inactive) | 72.9 µM (inactive) | 66.1 µM (inactive) | > 100 µM (inactive) | > 100 µM (inactive) | 71.1 µM (inactive) | > 100 µM (inactive) | > 100 µM (inactive) | > 100 µM (inactive) | > 100 µM (inactive) | > 100 µM (inactive) | 89.9 µM (inactive) | > 100 µM (inactive) | > 100 µM (inactive) | 79.6 µM (inactive) | > 100 µM (inactive) | > 100 µM (inactive) | > 100 µM (inactive) | 92.7 µM (inactive)
2 | CCOC(=O)Cc1nn2c(=O)cc(C)nc2s1 | > 100 µM (inactive) | > 100 µM (inactive) | > 100 µM (inactive) | > 100 µM (inactive) | > 100 µM (inactive) | > 100 µM (inactive) | > 100 µM (inactive) | > 100 µM (inactive) | > 100 µM (inactive) | > 100 µM (inactive) | > 100 µM (inactive) | > 100 µM (inactive) | > 100 µM (inactive) | > 100 µM (inactive) | > 100 µM (inactive) | > 100 µM (inactive) | 55.2 µM (inactive) | > 100 µM (inactive) | > 100 µM (inactive) | > 100 µM (inactive)
3 | CC1=NN(c2nc(N)nc(C(C#N)C(=O)c3cc4c(cc3Cl)Sc3nccn3S4(=O)=O)n2)C(C)(C)C1 (stereo not given) | 13.4 µM (inactive) | 13.6 µM (inactive) | 6.84 µM (inactive) | 24.9 µM (inactive) | 16.9 µM (inactive) | 18 µM (inactive) | 10.3 µM (inactive) | 34.7 µM (inactive) | 15.6 µM (inactive) | 14.3 µM (inactive) | > 100 µM (inactive) | 13.6 µM (inactive) | 10.1 µM (inactive) | 27.3 µM (inactive) | 13.6 µM (inactive) | 20.5 µM (inactive) | 37.7 µM (inactive) | 17.3 µM (inactive) | 55.6 µM (inactive) | 16 µM (inactive)
4 | Cc1cc(S(=O)(=O)Nc2nc3ccccc3nc2-c2ccc(Cl)cc2)c(S)cc1Cl | 16.7 µM (inactive) | 23.8 µM (inactive) | 21.7 µM (inactive) | 16.4 µM (inactive) | 15.7 µM (inactive) | 19.4 µM (inactive) | 21.6 µM (inactive) | 22.4 µM (inactive) | 24.5 µM (inactive) | 22.7 µM (inactive) | 19.4 µM (inactive) | 16.3 µM (inactive) | 14.6 µM (inactive) | 23 µM (inactive) | 17.7 µM (inactive) | 18.9 µM (inactive) | 19.9 µM (inactive) | 25.6 µM (inactive) | 19 µM (inactive) | 16.4 µM (inactive)
5 | COC1=C2CC(C)CC(OC)C(OC(=O)CCCN)C(C)/C=C(\C)C(OC(N)=O)C(OC)/C=C\C=C(/C)C(=O)NC(=CC1=O)C2=O (stereo not given) | 5.4 µM (inactive) | 4.29 µM (inactive) | 0.766 µM (active) | 0.431 µM (active) | 13.2 µM (inactive) | 3.98 µM (inactive) | 0.289 µM (active) | 17.3 µM (inactive) | 9.16 µM (inactive) | 2.29 µM (inactive) | 19.9 µM (inactive) | 3.2 µM (inactive) | 7 µM (inactive) | 3.12 µM (inactive) | 10.3 µM (inactive) | 16.9 µM (inactive) | 6.71 µM (inactive) | 5.5 µM (inactive) | 15.4 µM (inactive) | 18.5 µM (inactive)
6 | CCOC(=O)NC | > 100 µM (inactive) | > 100 µM (inactive) | > 100 µM (inactive) | > 100 µM (inactive) | > 100 µM (inactive) | > 100 µM (inactive) | > 100 µM (inactive) | > 100 µM (inactive) | > 100 µM (inactive) | > 100 µM (inactive) | > 100 µM (inactive) | > 100 µM (inactive) | > 100 µM (inactive) | > 100 µM (inactive) | > 100 µM (inactive) | > 100 µM (inactive) | > 100 µM (inactive) | > 100 µM (inactive) | > 100 µM (inactive) | > 100 µM (inactive)
7 | COc1cc2oc(=O)cc(C)c2cc1[N+](=O)[O-] | 28.1 µM (inactive) | 16.7 µM (inactive) | 17.8 µM (inactive) | 23.9 µM (inactive) | > 59.4 µM (inactive) | 15.3 µM (inactive) | 8.87 µM (inactive) | 41.6 µM (inactive) | 22.4 µM (inactive) | 20.1 µM (inactive) | 28.4 µM (inactive) | 25.4 µM (inactive) | 35.1 µM (inactive) | 15.1 µM (inactive) | 17.5 µM (inactive) | 51.4 µM (inactive) | 23.8 µM (inactive) | 16.4 µM (inactive) | > 83.6 µM (inactive) | 37.4 µM (inactive)
8 | Cc1cc2c(cc1Cl)S(=O)(=O)OC(c1ccc([N+](=O)[O-])cc1)=N2 | > 100 µM (inactive) | > 100 µM (inactive) | > 100 µM (inactive) | > 100 µM (inactive) | > 100 µM (inactive) | > 100 µM (inactive) | > 100 µM (inactive) | > 100 µM (inactive) | > 100 µM (inactive) | > 100 µM (inactive) | > 100 µM (inactive) | > 100 µM (inactive) | > 100 µM (inactive) | > 100 µM (inactive) | > 100 µM (inactive) | > 100 µM (inactive) | > 100 µM (inactive) | > 100 µM (inactive) | > 100 µM (inactive) | > 100 µM (inactive)
9 | C=C1CCc2ccccc2C1=O | > 100 µM (inactive) | > 100 µM (inactive) | 45.8 µM (inactive) | > 100 µM (inactive) | > 100 µM (inactive) | > 100 µM (inactive) | > 100 µM (inactive) | > 100 µM (inactive) | > 100 µM (inactive) | > 100 µM (inactive) | > 100 µM (inactive) | > 100 µM (inactive) | > 100 µM (inactive) | > 100 µM (inactive) | > 100 µM (inactive) | 51.3 µM (inactive) | > 100 µM (inactive) | > 100 µM (inactive) | > 100 µM (inactive) | > 100 µM (inactive)
10 | Cc1cc2c(cc1Cl)SC(NNC(=O)c1ccco1)=NS2(=O)=O | > 10 µM (inactive) | > 10 µM (inactive) | > 10 µM (inactive) | > 10 µM (inactive) | > 10 µM (inactive) | > 10 µM (inactive) | > 10 µM (inactive) | > 10 µM (inactive) | > 10 µM (inactive) | > 10 µM (inactive) | > 10 µM (inactive) | > 10 µM (inactive) | > 10 µM (inactive) | > 10 µM (inactive) | > 10 µM (inactive) | > 10 µM (inactive) | > 10 µM (inactive) | > 10 µM (inactive) | > 10 µM (inactive) | > 10 µM (inactive)
11 | COc1ccc(-c2cc3c(nn2)-c2ccccc2C3=O)cc1 | > 10 µM (inactive) | > 10 µM (inactive) | 6.38 µM (inactive) | > 10 µM (inactive) | > 10 µM (inactive) | 7.71 µM (inactive) | > 10 µM (inactive) | > 10 µM (inactive) | > 10 µM (inactive) | > 10 µM (inactive) | > 10 µM (inactive) | > 10 µM (inactive) | > 10 µM (inactive) | > 10 µM (inactive) | > 10 µM (inactive) | > 10 µM (inactive) | > 10 µM (inactive) | > 10 µM (inactive) | > 10 µM (inactive) | > 10 µM (inactive)
12 | N#Cc1c(Nc2ccccc2)[n+]([O-])c2ccc(Cl)cc2[n+]1[O-] | 2.85 µM (inactive) | 3.44 µM (inactive) | 2.92 µM (inactive) | 2.33 µM (inactive) | 4.3 µM (inactive) | 3.88 µM (inactive) | 2.01 µM (inactive) | 7.67 µM (inactive) | 9.53 µM (inactive) | 7.59 µM (inactive) | 2.7 µM (inactive) | 2.99 µM (inactive) | 1.56 µM (inactive) | 9.77 µM (inactive) | 4.38 µM (inactive) | 4.52 µM (inactive) | 5.22 µM (inactive) | 4.49 µM (inactive) | 5.51 µM (inactive) | 3.15 µM (inactive)
13 | Nc1cc(S(=O)(=O)O)cc2ccc(S(=O)(=O)O)cc12 | > 100 µM (inactive) | > 100 µM (inactive) | > 100 µM (inactive) | > 100 µM (inactive) | > 100 µM (inactive) | > 100 µM (inactive) | > 100 µM (inactive) | > 100 µM (inactive) | > 100 µM (inactive) | > 100 µM (inactive) | > 100 µM (inactive) | > 100 µM (inactive) | > 100 µM (inactive) | > 100 µM (inactive) | > 100 µM (inactive) | > 100 µM (inactive) | > 100 µM (inactive) | > 100 µM (inactive) | > 100 µM (inactive) | > 100 µM (inactive)
14 | Cc1[nH]c2ccccc2c1-c1cc(-c2cc(-c3c(C)[nH]c4ccccc34)on2)no1 | > 100 µM (inactive) | > 100 µM (inactive) | 34.2 µM (inactive) | 84.1 µM (inactive) | 54.7 µM (inactive) | 44.3 µM (inactive) | 34.5 µM (inactive) | 85.9 µM (inactive) | > 100 µM (inactive) | 63.7 µM (inactive) | > 100 µM (inactive) | 40.6 µM (inactive) | > 100 µM (inactive) | 37.7 µM (inactive) | 52.7 µM (inactive) | 40.2 µM (inactive) | 49 µM (inactive) | > 100 µM (inactive) | > 100 µM (inactive) | 77.8 µM (inactive)

Source: ChEMBL document CHEMBL1201862, “PubChem BioAssay data set” (2004)
